Data published in US9611295B2, “Treatment of IL-17 mediated disease by blocking SEFIR-SEFIR interactions” (THE CLEVELAND CLINIC FOUNDATION, priority 2011, dated 2017).

Assays:
IL-17RA SEFIR domain = molecular target: T1, IL-17RA SEFIR domain (Homo sapiens, UniProt Q96F46); assay: SPR binding of peptides to immobilized IL-17RA SEFIR domain; conditions: sensor-immobilized IL-17RA SEFIR, Biacore 3000
T1 construct: IL17RA-SEFIR, amino acid residues 351 to 616; 6xHis (N, cleaved yes); TEV recognition site (ENLYFQG) (N, cleaved yes); made in house
T1 sequence (Q96F46 351-616): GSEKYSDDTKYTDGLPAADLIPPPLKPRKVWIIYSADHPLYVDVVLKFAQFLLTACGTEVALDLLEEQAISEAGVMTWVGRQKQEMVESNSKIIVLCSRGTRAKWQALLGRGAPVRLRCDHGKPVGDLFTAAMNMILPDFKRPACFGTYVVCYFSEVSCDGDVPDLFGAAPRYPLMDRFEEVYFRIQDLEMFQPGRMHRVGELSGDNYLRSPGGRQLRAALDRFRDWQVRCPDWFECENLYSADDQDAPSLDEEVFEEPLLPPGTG
Source text: The Cins helix and the CC′ loop are distinct putative surface-exposed sequences in the SEFIR3 segment of Act1. To determine whether the Cins helix and the CC′ loop interacted with IL-17RA, surface plasmon resonance (SPR) was used to test peptides derived from Cins (SPKYKQDVEGAESQ) (SEQ ID NO: 19) and the CC′ loop (LDEDEHGLHTKY) (SEQ ID NO: 5) for their ability to bind to the IL-17RA SEFIR domain. As expected, the recombinant Act1 SEFIR domain bound to the sensor-immobilized SEFIR of IL-17RA.
Expression and purification of IL-17RA and mAct1-SEFIR proteins: The cDNA encoding a SEFIR domain-containing fragment of human IL17RA (IL17RA-SEFIR, amino acid residues 351 to 616) was subcloned into a modified pET-28 vector, with a N-terminal 6×His tag (SEQ ID NO: 18)and a tobacco etch virus protease (TEV) recognition site (ENLYFQG) (SEQ ID NO: 21 )). The IL17RA SEFIR domain was expressed and purified by double-Nickel-Nitrilotriacetic Acid (Ni-NTA) affinity methods as previously described. Deng et al., Acta Crystallogr D Biol Crystallogr 60:203-204 (2004). The His-tag was subsequently removed from the eluted fusion protein by rTEV, and IL17RA-SEFIR was further purified as flow-through material from a second subtracting Ni-NTA column. Size-exclusion chromatography on a superdex s200 HR high resolution column was used as a final step for purification. The cDNA encoding a SEFIR domain containing a fragment of mouse Act1 (mAct1-SEFIR, residues 391 to 537) was subcloned into a modified pET28b vector that expresses maltose-binding protein (MBP) with an N-terminal 6×His tag (SEQ ID NO: 18) and a C-terminal TEV recognition site. Recombinant mAct1-SEFIR was expressed and purified as previously described. Deng et al., Proc Natl Acad Sci USA 105:1499-1504 (2008). The His-tagged MBP moiety was cleaved from the fusion protein by rTEV after the first Ni-NTA column purification. Recombinant mAct1-SEFIR was subsequently collected as flow-through from a second subtracting Ni-NTA column.
SPR analysis: Binding of purified Act1 SEFIR domain or peptides to IL-17RA was conducted on a Biacore 3000. Purified IL-17RA SEFIR domain was immobilized on a CM5 sensor chip in 10 mM acetic acid (pH 4.5). Purified Act1 SEFIR domain or peptides were allowed to flow over the chip in a buffer of 10 mM Hepes (pH 7.4), 150 mM NaCl, and 0.005% surfactant P20. The chip was regenerated with 1 M NaCl. Binding KD values were determined by Biaevaluation software.

[1] = tested on: IL-25-dependent signaling; assay: IL-25-dependent signaling in MEFs by Western blotting (pIκB, pJNK, pERK, pp38 MAPK); format: cell-based, mouse; conditions: MEFs expressing IL-17RB, peptides 200 μM, 24 hours
Protocol: FIG. 4 provides data showing that a cell-permeable CC′ loop decoy peptide disrupts the interaction between Act1 and IL-17RA and inhibits IL-17R and IL-25R signaling. FIG. 4A provides sequences of Antennapedia homeodomain (Antp) (SEQ ID NO: 11)and decoy peptides (SEQ ID NOS 23-25 and 17, respectively, in order of appearance) with the Antp sequence underlined. FIG. 4B provides flow cytometry results based on experiments in which MEFs expressing IL-17RB were incubated for 2 or 24 hours with the indicated FITC-tagged peptides (200 μM) and were then analyzed by flow cytometry. […] The percentages of FITC-positive cells in the treated samples are shown. FIG. 4C provides Western blot results of experiments in which HeLa cells were cotransfected with plasmids encoding FLAG-tagged mAct1 and V5-tagged IL-17RA and were cultured for 24 hours, after which they were incubated for 24 hours with the indicated peptides (200 μM). IL-17RA was immunoprecipitated from the samples with antibody against the V5 tag, and samples were then subjected to Western blotting analysis with the indicated antibodies. FIG. 4D provides Western blot results of experiments in which MEFs expressing IL-17RB were incubated with the indicated peptides (200 μM) for 24 hours after which they were treated with IL-17 or IL-25 and then analyzed by Western blotting with the indicated antibodies. FIG. 4E provides bar graphs showing the results of experiments in which MEFs expressing IL-17RB were incubated with the indicated peptides (200 μM) for 24 hours, after which they were treated with IL-17 or IL-25 for 3 hours. The abundances of Cxcl1 and Il13 mRNAs were then measured by real-time RT-PCR. […]
(§1) Decoy peptides are based on surface-exposed regions of the primary sequence of a protein to mimic a putative interaction interface. […] These decoy peptides were also tagged at their C-termini with fluorescein isothiocyanate (FITC) to enable their cell-penetrating efficiency to be evaluated by flow cytometric sanalysis. […]

[2] = tested on: IL-17-mediated expression of Cxcl1; assay: IL-17-mediated Cxcl1 mRNA expression in MEFs, real-time RT-PCR; format: cell-based, mouse; conditions: peptides 200 μM for 24 hours, then IL-17 for 3 hours
Protocol: (§2) FIG. 4 provides data showing that a cell-permeable CC′ loop decoy peptide disrupts the interaction between Act1 and IL-17RA and inhibits IL-17R and IL-25R signaling. FIG. 4A provides sequences of Antennapedia homeodomain (Antp) (SEQ ID NO: 11)and decoy peptides (SEQ ID NOS 23-25 and 17, respectively, in order of appearance) with the Antp sequence underlined. FIG. 4B provides flow cytometry results based on experiments in which MEFs expressing IL-17RB were incubated for 2 or 24 hours with the indicated FITC-tagged peptides (200 μM) and were then analyzed by flow cytometry. […] The percentages of FITC-positive cells in the treated samples are shown. […] FIG. 4D provides Western blot results of experiments in which MEFs expressing IL-17RB were incubated with the indicated peptides (200 μM) for 24 hours after which they were treated with IL-17 or IL-25 and then analyzed by Western blotting with the indicated antibodies. […] The abundances of Cxcl1 and Il13 mRNAs were then measured by real-time RT-PCR. […]
as §1

[3] = tested on: IL-25-mediated expression of Il13; assay: IL-25-mediated Il13 mRNA expression in MEFs, real-time RT-PCR; format: cell-based, mouse; conditions: peptides 200 μM for 24 hours, then IL-25 for 3 hours
Protocol: as §2, §1

[4] = tested on: House Dust Mite (HDM)-induced Asthma; assay: Murine model of House Dust Mite (HDM)-induced asthma; format: in vivo, mouse; conditions: day 6; about 100,000 cells/ml without peptide
Protocol: FIG. 11 provides a graph showing that the ASI peptide inhibits inflammation in a murine model of experimental House Dust Mite (HDM)-induced Asthma. The white blood cell count was about 100,000 cells/ml when IL-17 was used alone, but dropped to about 10,000 cells/ml when ASI peptide was used together with IL-17. […] Ears from C57B1/6 mice (n=3 for each group) were injected daily with PBS, IL-17 with or without ASI. On day 7, ears were collected for staining with H&E and real-time analysis of gene expression.

[5] = tested on: IL-17-induced inflammation in mouse ear skin; assay: IL-17-induced inflammation in mouse ear skin; format: in vivo; conditions: C57B1/6 mice, daily injection
Protocol: Ears from C57B1/6 mice (n=3 for each group) were injected daily with PBS, IL-17 with or without ASI. On day 7, ears were collected for staining with H&E and real-time analysis of gene expression.

In the case of “EDRIRGID (listed as Mus sp.) [peptide derived from the BB′ loop, reference compound]”, the “binding to the IL-17RA SEFIR domain (SPR)” value (“binding” below) (IL-17RA SEFIR domain) is reported as “did not bind”.

LDEDEHGLHTKY [CC′ loop peptide] was tested, and the “binding” value (IL-17RA SEFIR domain) was “bound to the IL-17RA SEFIR”.

For “SPKYKQDVEGAESQ [Cins peptide, reference compound]”, the “binding” value (IL-17RA SEFIR domain) was “but not the Cins peptide, bound to the IL-17RA SEFIR”.

For “Act1 SEFIR domain BB′ loop peptide: cell-permeable decoy peptide: BB′ loop sequence of Act1 SEFIR domain fused to C-terminus of Antp (DRQIKIWFQNRRMKWKKEDRIRGID) [reference compound]”, the “IL-25-dependent signaling (pIκB, pJNK, pERK, pp38 MAPK)” value [1] was “but not the Act1 SEFIR domain BB′ loop peptide, partly attenuated”, the “inhibition of IL-17-mediated expression of Cxcl1” value [2] was “no effect” and the “inhibition of IL-25-mediated expression of Il13” value [3] was “no effect”.

In the case of “ASI peptide: the CC′ loop decoy peptide (SEQ ID NO: 5) (LDEDEHGLHTKY)”, the “white blood cell count in BAL” value [4] is reported as “about 10,000 cells/ml”, the “epidermal thickness and inflammation of ear skin (H&E)” value ([5]; day 7) is reported as “inhibits IL-17-induced inflammation” and the “inflammatory gene expression in ear skin (bar graphs)” value ([5]; day 7, real-time analysis) is reported as “counteracted the inflammatory results of IL-17”.

B1: recombinant Act1 SEFIR domain: SEFIR domain containing fragment of mouse Act1, residues 391 to 537 (protein)
chain: RKVFITYSMDTAMEVVKFVNFLLVNGFQTAIDIFEDRIRGIDIIKWMERYLRDKTVMIIVAISPKYKQDVEGAESQLDEDEHGLHTKYIHRMMQIEFISQGSMNFRFIPVLFPNAKKEHVPTWLQNTHVYSWPKNKKNILLRLLREE
B1 was tested, and the “binding” value (IL-17RA SEFIR domain) was “bound”.
